Measured values published in US8969088B2, “Substrate mimicking intercellular lipids in stratum corneum and method of evaluating skin roughening using the same” (Shiseido Company, Ltd., priority 2008, dated 2015).

Assay: Myelin figure formation on exposing the lipids-mimicking substrate to surfactant (microscopy)
Conditions: aqueous solution 5.0 mg/cm^3, 25° C., 6 hours, lipid membrane 50 μm
Method: Multiple substrates mimicking intercellular lipids in stratum corneum, each having a lipid membrane controlled to a thickness of 50 μm were exposed to an aqueous solution (5.0 mg/cm^3) of SDS (99.0%) (Nacalai Tesque, Inc., Kyoto, Japan) at a temperature of 25° C. for 6 hours. Each exposed substrate was rinsed with a small amount of water and dried, and used for the following evaluation test.
Upon examination of surfactants other than SDS, a myelin figure was formed with some and not formed with others. For each of the examined surfactants, the shortest distance from the edge of the substrate to the tip of the myelin figure (hereunder referred to as “myelin figure formation distance”) was measured.

CCCCCCCCCCCCOS(=O)(=O)[O-].[Na+] [SDS]
myelin figure formation: formation of a myelin figure within a constant range
